From patent US20220264923A1, “Taste Modifying Product” (Firmenich SA, priority 2011, published 2022) come the findings set out here.

The nature of this assay: Umami effect of pure amide in pure water, panel versus MSG. The format is in vivo. The note with it: amide at 20ppm in mineral water vs 0.05% MSG; RUI=(umami intensity of the amide)/(umami intensity of MSG)*10; average of 5-10 trained panelists. On the procedure: The amides were evaluated at 20ppm in mineral water in comparison with 0.05% monosodium glutamate (MSG). […] The Relative umami intensity (RUI) was calculated as follows: […] The following table gives the average of the notes obtained from all panelists.

For the compound `COc1ccccc1CCNC(=O)/C=C/c1ccc(OC)c(OC)c1` [Amide 5], the “Relative umami intensity (RUI)” value was determined as 3.2. As to `CCc1ccc(CCNC(=O)/C=C/c2ccc(OC)c(OC)c2)cc1` [Amide 10, (E)-3-(3,4-dimethoxyphenyl)-N-(4-ethylphenethyl)acrylamide], the “Relative umami intensity (RUI)” value stood at 11.5. For the compound `COc1ccc(/C=C/C(=O)NCCc2cccc(C)c2)cc1OC` [Amide 17, (E)-3-(3,4-dimethoxyphenyl)-N-(3-methylphenethyl)acrylamide], the “Relative umami intensity (RUI)” value came to 12.1. As to `COc1ccc(CCNC(=O)/C=C/c2ccc(OC)c(OC)c2)cc1` [Amide 1, (E)-3-(3,4-dimethoxyphenyl)-N-(4-methoxyphenethyl)acrylamide], the “Relative umami intensity (RUI)” value was determined as 5.6. On to `COc1ccc(/C=C/C(=O)NCCc2ccccc2)cc1OC` [Amide 2], for which the “Relative umami intensity (RUI)” value was found to be 3.8.

Turning to `CCCOc1cccc(CCNC(=O)/C=C/c2ccc(OC)c(OC)c2)c1` [Amide 8, (E)-3-(3,4-dimethoxyphenyl)-N-(3-propoxyphenethyl)acrylamide], the “Relative umami intensity (RUI)” value worked out at 9.9. Turning to `COc1ccc(/C=C/C(=O)NCCc2ccc(OC(C)C)cc2)cc1OC` [Amide 9, (E)-3-(3,4-dimethoxyphenyl)-N-(4-isopropoxy-phenethyl)acrylamide], the “Relative umami intensity (RUI)” value came out at 6.5. For `COc1cc(CCNC(=O)/C=C/c2ccc(OC)c(OC)c2)cc(OC)c1` [Amide 6] the value was 3.7.

Consider `COc1cccc(CCNC(=O)/C=C/c2ccc(OC)c(OC)c2)c1` [Amide 4, (E)-3-(3,4-dimethoxyphenyl)-N-(3-methoxyphenethyl)acrylamide], for which the “Relative umami intensity (RUI)” value is recorded as 10.2.

For the compound `CCOc1cccc(CCNC(=O)/C=C/c2ccc(OC)c(OC)c2)c1` [Amide 7, (E)-3-(3,4-dimethoxyphenyl)-N-(3-ethoxyphenethyl)acrylamide], the “Relative umami intensity (RUI)” value is recorded as 9.8. For the compound `COc1ccc(/C=C/C(=O)NCCc2ccc(C(C)C)cc2)cc1OC` [Amide 12, (E)-3-(3,4-dimethoxyphenyl)-N-(4-isopropylphenethyl)acrylamide], the “Relative umami intensity (RUI)” value turned out to be 5.9. `COc1ccc(/C=C/C(=O)NCCc2ccc(OC)c(OC)c2)cc1OC` [Amide 3]: the “Relative umami intensity (RUI)” value is recorded as 3.3. With `COc1ccc(/C=C/C(=O)NCCc2ccc(C)c(C)c2)cc1OC` [Amide 11, (E)-3-(3,4-dimethoxyphenyl)-N-(3,4-dimethylphenethyl)acrylamide], the “Relative umami intensity (RUI)” value amounted to 13.3. For `COc1ccc(/C=C/C(=O)NCCc2ccc(OC)c(OC)c2)cc1` [Amide 14], the “Relative umami intensity (RUI)” value amounted to 3.8.
